# Experiments:
# [1] = test system: DU-145; assay: Antiproliferative activity against human DU-145 cells assessed as reduction in cell viability after 48 hrs by MTT assay; format: functional, cell-based; settings: DU-145, 48 h
# [2] = test system: L132; assay: Cytotoxicity against human L132 cells assessed as reduction in cell viability after 48 hrs by MTT assay; format: cell-based; settings: L132, 48 h
# [3] = test system: A549; assay: Antiproliferative activity against human A549 cells assessed as reduction in cell viability after 48 hrs by MTT assay; format: functional, cell-based; settings: A549, 48 h
# [4] = test system: MDA-MB-231; assay: Antiproliferative activity against human MDA-MB-231 cells assessed as reduction in cell viability after 48 hrs by MTT assay; format: functional, cell-based; settings: MDA-MB-231, 48 h
# [5] = Inhibition of Saccharomyces cerevisiae alpha-glucosidase using p-nitophenyl alpha […]D-glucoside incubated for 45 mins
# [6] = Inhibition of LPS-induced TNF-alpha expression in human U-937 cells preincubated for 1 hr followed by LPS addition and measured after 24 hrs by ELISA; format: functional, cell-based
# [7] = Inhibition of LPS-induced IL-1beta expression in human U-937 cells preincubated for 1 hr followed by LPS addition and measured after 24 hrs by ELISA; format: functional, cell-based
# [8] = test system: PC-3; assay: Antiproliferative activity against human PC3 cells assessed as reduction in cell viability after 48 hrs by MTT assay; format: functional, cell-based; settings: PC-3, 48 h
# [9] = test system: HT-29; assay: Antiproliferative activity against human HT-29 cells assessed as reduction in cell viability after 48 hrs by MTT assay; format: functional, cell-based; settings: HT-29, 48 h
# [10] = test system: U-87 MG; assay: Antiproliferative activity against human U87 cells assessed as reduction in cell viability after 48 hrs by MTT assay; format: functional, cell-based, U-87MG ATCC
# [11] = test system: SiHa; assay: Antiproliferative activity against human SiHa cells assessed as reduction in cell viability after 48 hrs by MTT assay; format: functional, cell-based
# [12] = test system: Saccharomyces cerevisiae; assay: Potency index, ratio of Myrrhanone-B IC50 to test compound IC50 for inhibition of Saccharomyces cerevisiae alpha-glucosidase
# [13] = test system: Saccharomyces cerevisiae; assay: Potency index, ratio of acarbose IC50 to test compound IC50 for inhibition of Saccharomyces cerevisiae alpha-glucosidase
IC50 [1] [µM],IC50 [3] [µM],IC50 [4] [µM],IC50 [5] [µM],IC50 [6] [µM],IC50 [7] [µM],IC50 [8] [µM],IC50 [9] [µM],IC50 [10] [µM],Ratio IC50 [12],Ratio IC50 [13],Structure (SMILES),IC50 [2] [µM],IC50 [11] [µM]
> 150,> 150,> 150,,,,,,,,,C/C(=C\CC/C(C)=C/CC[C@@H]1[C@@]2(C)CCC(=O)C(C)(C)[C@H]2CC[C@@]1(C)O)CC/C=C(\C)C(=O)OCc1cn(-c2ccccc2F)nn1,> 150,
,,,2120,,,,,,,,C[C@H]1O[C@H](O[C@H]2[C@H](O)[C@@H](O)[C@@H](O[C@H]3[C@H](O)[C@@H](O)C(O)O[C@@H]3CO)O[C@@H]2CO)[C@H](O)[C@@H](O)[C@@H]1N[C@H]1C=C(CO)[C@@H](O)[C@H](O)[C@H]1O (some centres undefined) [ACARBOSE],,
,,,,0.64,0.44,,,,,,C[C@]12C=CC(=O)C=C1CC[C@@H]1[C@@H]2[C@@H](O)C[C@@]2(C)[C@H]1CC[C@]2(O)C(=O)CO [PREDNISOLONE],,
46.1,45.1,114,,,,18.9,27.4,> 150,,,C#CCOC(=O)/C(C)=C/CC/C(C)=C/CC/C(C)=C/CC[C@@H]1[C@@]2(C)CCC(=O)C(C)(C)[C@H]2CC[C@@]1(C)O,,
> 150,> 150,> 150,,,,,,,,,C/C(=C\CC/C(C)=C/CC[C@@H]1[C@@]2(C)CCC(=O)C(C)(C)[C@H]2CC[C@@]1(C)O)CC/C=C(\C)C(=O)OCc1cn(-c2ccccc2C)nn1,> 150,
137,> 150,,13.4,,,,,,,,C/C(=C\CC/C(C)=C/CC[C@@H]1[C@@]2(C)CCC(=O)C(C)(C)[C@H]2CC[C@@]1(C)O)CC/C=C(\C)C(=O)OCc1cn(-c2cccc(C)c2)nn1,> 150,> 150
> 150,> 150,,,,,,,,,,C/C(=C\CC/C(C)=C/CC[C@@H]1[C@@]2(C)CCC(=O)C(C)(C)[C@H]2CC[C@@]1(C)O)CC/C=C(\C)C(=O)OCc1cn(-c2ccc(C)cc2)nn1,> 150,
> 150,> 150,> 150,106,9.58,8.95,,,,,,C/C(=C\CC/C(C)=C/CC[C@@H]1[C@@]2(C)CCC(=O)C(C)(C)[C@H]2CC[C@@]1(C)O)CC/C=C(\C)C(=O)OCc1cn(-c2ccccc2Cl)nn1,> 150,
> 150,> 150,> 150,13.4,,,,,,,,C/C(=C\CC/C(C)=C/CC[C@@H]1[C@@]2(C)CCC(=O)C(C)(C)[C@H]2CC[C@@]1(C)O)CC/C=C(\C)C(=O)OCc1cn(-c2cccc(C(F)(F)F)c2)nn1,,
3.11,2.58,0.034,,,,5.05,0.082,5.94,,,COc1cccc2c1C(=O)c1c(O)c3c(c(O)c1C2=O)C[C@@](O)(C(=O)CO)C[C@@H]3O[C@H]1C[C@H](N)[C@H](O)[C@H](C)O1 [DOXORUBICIN],0.01,0.311
135,> 150,> 150,,,,,,,,,COc1ccc(-n2cc(COC(=O)/C(C)=C/CC/C(C)=C/CC/C(C)=C/CC[C@@H]3[C@@]4(C)CCC(=O)C(C)(C)[C@H]4CC[C@@]3(C)O)nn2)cc1,> 150,
> 150,> 150,90.5,167,15.6,,40.7,56.6,,,,C/C(=C\CC/C(C)=C/CC[C@@H]1[C@@]2(C)CCC(=O)C(C)(C)[C@H]2CC[C@@]1(C)O)CC/C=C(\C)C(=O)O,> 150,96.7
> 150,15.3,> 150,,8.1,14.1,,,,,,C/C(=C\CC/C(C)=C/CC[C@@H]1[C@@]2(C)CCC(=O)C(C)(C)[C@H]2CC[C@@]1(C)O)CC/C=C(\C)C(=O)OCc1cn(C[C@@H]2O[C@H](n3ccc(=O)[nH]c3=O)[C@H]3OC(C)(C)O[C@H]32)nn1,> 150,
> 150,> 150,> 150,,,,,,,,,C/C(=C\CC/C(C)=C/CC[C@@H]1[C@@]2(C)CCC(=O)C(C)(C)[C@H]2CC[C@@]1(C)O)CC/C=C(\C)C(=O)OCc1cn(-c2ccccc2Br)nn1,> 150,
> 150,> 150,,12.6,,,,,> 150,,,C/C(=C\CC/C(C)=C/CC[C@@H]1[C@@]2(C)CCC(=O)C(C)(C)[C@H]2CC[C@@]1(C)O)CC/C=C(\C)C(=O)OCc1cn(-c2ccc(C(C)(C)C)cc2)nn1,65.8,
> 150,> 150,,,,,,,,60.2,767,C/C(=C\CC/C(C)=C/CC[C@@H]1[C@@]2(C)CCC(=O)C(C)(C)[C@H]2CC[C@@]1(C)O)CC/C=C(\C)C(=O)OCc1cn(-c2ccc([N+](=O)[O-])cc2)nn1,> 150,
> 150,> 150,,11.3,,,,,> 150,,,C/C(=C\CC/C(C)=C/CC[C@@H]1[C@@]2(C)CCC(=O)C(C)(C)[C@H]2CC[C@@]1(C)O)CC/C=C(\C)C(=O)OCc1cn(-c2ccc(Br)cc2)nn1,> 150,
103,147,103,7.91,,,,,91.8,,,C/C(=C\CC/C(C)=C/CC[C@@H]1[C@@]2(C)CCC(=O)C(C)(C)[C@H]2CC[C@@]1(C)O)CC/C=C(\C)C(=O)OCc1cn(-c2cccc(Cl)c2)nn1,94.2,111
95.5,> 150,> 150,43.5,9.3,9.87,,,,,,C/C(=C\CC/C(C)=C/CC[C@@H]1[C@@]2(C)CCC(=O)C(C)(C)[C@H]2CC[C@@]1(C)O)CC/C=C(\C)C(=O)OCc1cn(-c2ccccc2)nn1,> 150,149
> 150,> 150,,,9.12,66.6,,,,,,C/C(=C\CC/C(C)=C/CC[C@@H]1[C@@]2(C)CCC(=O)C(C)(C)[C@H]2CC[C@@]1(C)O)CC/C=C(\C)C(=O)OCc1cn(-c2ccc(Cl)cc2)nn1,> 150,
> 150,> 150,,17.6,,,,,,,,COc1cccc(-n2cc(COC(=O)/C(C)=C/CC/C(C)=C/CC/C(C)=C/CC[C@@H]3[C@@]4(C)CCC(=O)C(C)(C)[C@H]4CC[C@@]3(C)O)nn2)c1,,
> 150,> 150,> 150,,11.7,9.06,,,,,,COc1ccccc1-n1cc(COC(=O)/C(C)=C/CC/C(C)=C/CC/C(C)=C/CC[C@@H]2[C@@]3(C)CCC(=O)C(C)(C)[C@H]3CC[C@@]2(C)O)nn1,> 150,
> 150,124,144,4.12,,,,,> 150,,,C/C(=C\CC/C(C)=C/CC[C@@H]1[C@@]2(C)CCC(=O)C(C)(C)[C@H]2CC[C@@]1(C)O)CC/C=C(\C)C(=O)OCc1cn(-c2cccc(F)c2)nn1,,> 150
> 150,> 150,,10.1,7.83,15.8,22.9,,,,,C/C(=C\CC/C(C)=C/CC[C@@H]1[C@@]2(C)CCC(=O)C(C)(C)[C@H]2CC[C@@]1(C)O)CC/C=C(\C)C(=O)OCc1cn(-c2ccc(F)c(Cl)c2)nn1,> 150,
> 150,> 150,,,,,,,,,,C/C(=C\CC/C(C)=C/CC[C@@H]1[C@@]2(C)CCC(=O)C(C)(C)[C@H]2CC[C@@]1(C)O)CC/C=C(\C)C(=O)OCc1cn(-c2cccc(Br)c2)nn1,> 150,
> 150,> 150,,,,,,,> 150,,,C/C(=C\CC/C(C)=C/CC[C@@H]1[C@@]2(C)CCC(=O)C(C)(C)[C@H]2CC[C@@]1(C)O)CC/C=C(\C)C(=O)OCc1cn(-c2ccc(F)cc2)nn1,> 150,
,> 150,> 150,,,,,,,,,C/C(=C\CC/C(C)=C/CC[C@@H]1[C@@]2(C)CCC(=O)C(C)(C)[C@H]2CC[C@@]1(C)O)CC/C=C(\C)C(=O)OCc1cn(-c2ccc(C(F)(F)F)cc2)nn1,> 150,
> 150,> 150,> 150,14.5,,,,,,,,C/C(=C\CC/C(C)=C/CC[C@@H]1[C@@]2(C)CCC(=O)C(C)(C)[C@H]2CC[C@@]1(C)O)CC/C=C(\C)C(=O)OCc1cn(-c2ccccc2C(F)(F)F)nn1,> 150,
13.8,35,38,,8.34,9.12,18.9,55.6,> 150,,,C/C(=C\CC/C(C)=C/CC[C@@H]1[C@@]2(C)CCC(=O)C(C)(C)[C@H]2CC[C@@]1(C)O)CC/C=C(\C)C(=O)OCc1cn([C@@H]2C[C@@H](n3cc(C)c(=O)[nH]c3=O)O[C@H]2CO)nn1,115,41.7
> 150,> 150,,2.77,,,24.8,,134,,,C/C(=C\CC/C(C)=C/CC[C@@H]1[C@@]2(C)CCC(=O)C(C)(C)[C@H]2CC[C@@]1(C)O)CC/C=C(\C)C(=O)OCc1cn(-c2cccc([N+](=O)[O-])c2)nn1,,

# Reference: ChEMBL document CHEMBL4680137, “Synthesis and biological evaluation of some novel 1,2,3-triazole hybrids of myrrhanone B isolated from Commiphora mukul gum resin: Identification of potent antiproliferative leads active against prostate cancer cells (PC-3)” (Eur J Med Chem, 2020)
